What all share (assay type): biochemical
Experiment [1] concerns the target T1, human delta opioid receptor (Homo sapiens, UniProt P41143).
T1 construct: expressed in transfected cells; host or cells: CHO cells (membrane homogenates)
The experiment is described as follows: [35S]GTP-γ-S binding stimulation, intrinsic activity at delta receptor. As to conditions: for intrinsic activity at the delta opioid receptor (in words): compared with DPDPE; for Emax: read-out: Agonist δ Emax (% DPDPE). Here is the method:
(§1) Determination of intrinsic activity. Test compounds 2.8 and 2.11 were assayed for their ability to stimulate [35S]GTP-γ-S binding in CHO cell membrane homogenates expressing either the human mu or human delta opioid receptor. The compounds were assayed in triplicate at eight different concentrations. […] The membranes were incubated with one of eight concentrations of positive control or test compound, 0.1 nM [35S]GTP-γ-S and 10 μM GDP in a 50 mM HEPES buffer (pH 7.4) at room temperature for one hour, after which bound radioligand was separated from free via rapid vacuum filtration over GF-B filters using a Brandel Scientific (Gaithersburg, MD) 96-well harvester. Bound radioactivity was determined using a TopCount 12-detector instrument (Packard Instruments) using standard scintillation counting techniques. The data were normalized to samples containing vehicle (basal binding), and a three-parameter logistic curve fit to the data using Prism (version 3.0, GraphPad Software, Inc., San Diego, Calif.). The EC50 and upper asymptote (Emax) were calculated for each compound and the data reported as mean ±SEM.
(In general: GTPγS resists hydrolysis and so accumulates on activated G proteins.)

Experiment [2] addresses T2, human mu opioid receptor (Homo sapiens, UniProt P35372).
T2 construct: expressed in transfected cells; host or cells: CHO cells (membrane homogenates)
The experiment is described as follows: [35S]GTP-γ-S binding stimulation, intrinsic activity at mu receptor. To be noted: for intrinsic activity at the mu opioid receptor (in words): compared with DAMGO. Here is the method: as §1

The target in experiment [3] is T3, human kappa opioid receptor (Homo sapiens, UniProt P41145).
T3 construct: expressed in transfected cells; host or cells: CHO cells (membrane homogenates)
The experiment is described as follows: Apparent affinity (Ke): shift of U69,593 dose response curve in [35S]GTP-γ-S binding. From the text: Determination of apparent affinity (Ke). The ability of a single concentration of test compound to shift the U69,593 (full kappa opioid receptor agonist) dose response curve to the right was used to determine the apparent affinity (Ke) of the test compounds. Assay conditions and analysis of the data were identical to that detailed for the determination of intrinsic activity except that membrane homogenates from CHO cells expressing the human kappa opioid receptor were used, and a single, identical concentration of test compound was included with each assayed concentration of kappa agonist. […]

T2 sequence (P35372 whole entry): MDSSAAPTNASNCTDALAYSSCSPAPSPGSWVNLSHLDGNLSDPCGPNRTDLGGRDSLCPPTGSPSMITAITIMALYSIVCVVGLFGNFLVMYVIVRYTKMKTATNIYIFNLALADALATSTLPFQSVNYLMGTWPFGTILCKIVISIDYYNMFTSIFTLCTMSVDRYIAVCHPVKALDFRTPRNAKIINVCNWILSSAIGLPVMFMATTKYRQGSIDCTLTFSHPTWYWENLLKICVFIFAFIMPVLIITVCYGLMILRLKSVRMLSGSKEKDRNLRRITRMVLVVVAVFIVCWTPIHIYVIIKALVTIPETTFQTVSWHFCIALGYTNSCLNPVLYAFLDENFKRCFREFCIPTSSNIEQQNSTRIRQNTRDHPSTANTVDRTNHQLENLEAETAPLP
T1 sequence (P41143 whole entry): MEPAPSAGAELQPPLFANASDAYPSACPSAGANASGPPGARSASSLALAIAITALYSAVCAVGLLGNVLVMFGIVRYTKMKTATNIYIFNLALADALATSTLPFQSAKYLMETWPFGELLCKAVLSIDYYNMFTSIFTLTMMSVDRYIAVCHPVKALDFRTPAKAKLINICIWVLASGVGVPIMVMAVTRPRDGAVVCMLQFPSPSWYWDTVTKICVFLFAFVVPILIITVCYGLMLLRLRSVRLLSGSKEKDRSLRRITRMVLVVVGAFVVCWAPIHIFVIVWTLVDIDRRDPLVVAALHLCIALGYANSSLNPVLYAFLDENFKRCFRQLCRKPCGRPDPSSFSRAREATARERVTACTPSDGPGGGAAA
T3 sequence (P41145 whole entry): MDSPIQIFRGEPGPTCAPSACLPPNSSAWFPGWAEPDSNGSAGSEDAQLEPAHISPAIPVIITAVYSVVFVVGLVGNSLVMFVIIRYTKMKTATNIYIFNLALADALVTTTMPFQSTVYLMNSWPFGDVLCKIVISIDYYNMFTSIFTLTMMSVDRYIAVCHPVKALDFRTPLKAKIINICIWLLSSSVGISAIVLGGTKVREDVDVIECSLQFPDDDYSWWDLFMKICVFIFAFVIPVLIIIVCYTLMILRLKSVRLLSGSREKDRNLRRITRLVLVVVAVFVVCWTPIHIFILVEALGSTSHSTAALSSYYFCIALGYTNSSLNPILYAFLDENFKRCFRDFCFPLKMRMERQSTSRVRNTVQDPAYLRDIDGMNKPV

For the compound `C[C@@H]1CN(CCCc2ccccc2)[C@H]2C[C@H](N)C[C@]1(c1cccc(O)c1)C2` [Compound 2.8, (−)-3-[(1 R,4S,5S,7R)-7-Amino-4-methyl-2-(3-phenylpropyl)-2-aza-bicyclo[3.3.1]non-5-yl]phenol], in experiment [1], the “intrinsic activity at the delta opioid receptor (in words)” value is given as “potent full agonist”. For the same compound, the Emax in experiment [1] came out at 101 ± 14%; in experiment [2] (relative to Emax of DAMGO, mean ±SEM, read-out: Agonist μ Emax (% DAMGO)) it was 74 ± 12%. Also, the “intrinsic activity at the mu opioid receptor (in words)” value in experiment [2] is given as “partial agonist”. Also, the “activity at the kappa opioid receptor (in words)” value in experiment [3] was “good inhibitor”.
For `CNC1CC2CC(c3cccc(O)c3)(C1)C(C)CN2CCCc1ccccc1` (centres unmarked) [Compound 2.11, 5-(3-Hydroxyphenyl)-4-methyl-7-methylamino-2-(3-phenylprop-1-yl)-2-azabicyclo[3.3.1]nononane], in experiment [1], the “intrinsic activity at the delta opioid receptor (in words)” value is given as “partial agonist” and the Emax turned out to be 79.7 ± 7.7%. Also, the “intrinsic activity at the mu opioid receptor (in words)” value in experiment [2] is “full agonist”. The “maximum stimulation of [35S]GTP-γ-S binding compared with DAMGO (t-test)” value in experiment [2] (p>0.05) is given as “not statistically different”. Further, in experiment [3], the “activity at the kappa opioid receptor (in words)” value is recorded as “good inhibitor”.
For `C[C@@H](NC(=O)[C@@H](N)Cc1ccc(O)cc1)C(=O)NCC(=O)N(C)[C@@H](Cc1ccccc1)C(=O)NCCO` [DAMGO, (D-Ala^2,MePhe^4,Gly-ol^5)enkephalin, reference compound], the “intrinsic activity at the mu opioid receptor (in words)” value in experiment [2] is on record as “full agonist”.

As usually defined, the Emax is the maximal effect, on the per cent scale that the assay sets.

(Values after patent US7399762B2, “Opioid receptor agonist compounds and their use in treatment of pain” (Research Triangle Institute, priority 2005, dated 2008).)
